Measured values as given in patent publication US9290529B2, “Carbonic anhydrase inhibitors and method of their production” (USTAV ORGANICKE CHEMIE A BIOCHEMIE AKADEMIE VED CESKE …, priority 2011, dated 2016).

Experiments:
[1] = target: T1, human carbonic anhydrase II (hCA II) (Homo sapiens, UniProt P00918); assay: Colorimetric carbonic anhydrase inhibition assay (CO2 hydration, phenol red), hCA II; type: biochemical; conditions: 0° C., HEPES pH 7.0
T1 construct: purchased Sigma Aldrich C6165
Protocol: The compounds were assayed for inhibition activity of two isoforms of human carbonic anhydrase: hCA II and hCA IX. The human carbonic anhydrase II (HCA II) was purchased from Sigma Aldrich (Cat. No. C6165) in the form of lyophilized protein, which was dissolved before use in 10 mmol·l^−1 HEPES pH 7.0 to a concentration of 300 μmol·l^−1 and further diluted as required. Human carbonic anhydrase IX (HCA IX) was prepared by recombinant expression system in insect (Drosophila expression system, Invitrogen). […] This protein was further purified from media by chelating chromatography carrier His-Select Nickel Affinity Gel (Sigma, Cat No. P6611) and gel chromatography (Superdex 200 GL 30/300, GE Healthcare) according to the manufacturer's recommendations.
The principle of the method is based on measuring the rate of acidification of the solution that is observed as the color-shift of the acid-base-indicator (fenol red). The reaction was conducted in a glass tube placed in an ice bath (0° C., all stock solutions and enzymes were kept at the same temperature). […] This was followed by a CO2 saturation (stream flow 50 ml/min.) using a needle (18 G) up to color transition of fenol-red from red to yellow (typically 60 seconds by default). […] End point of reaction was determined by visual comparison with reference tube containing acid-base indicator (0.01% (wt./vol.) Fenol-red) and the pH adjusted to 7.0. […] Molar activity was calculated according to the formula:
[formula] where tB is the time of negative control without enzyme and tS is the time measured with an enzyme sample (and inhibitor), nprot is the number of moles of protein present in the sample. The value of IC50 for the inhibitor concentration corresponds inhibitor contraction required to decrease the specific activity to half of the value of non-inhibited enzyme. Selectivity towards CA IX inhibitor was calculated as the ratio of IC50 values for inhibition of HCA II against the value of IC50 for inhibition CA IX enzyme.

[2] = system: A549; assay: MTT cytotoxicity assay, A549; type: cell-based, human; conditions: 72 h
Text: (§1) One of the parameters used as the basis for colorimetric assays is the metabolic activity of viable cells. For example, a microtiter assay which uses the tetrazolium salt MTT is now widely used to quantitate cell proliferation and cytotoxicity (Hájduch et al., Cytotechnology, 19, 1996, 243-245). For instance, this assay is used in drug screening programs and in chemosensitivity testing. Because tetrazolium salts are cleaved only by metabolically active cells, these assays exclusively detect viable cells. In the case of the MTT assay, yellow soluble tetrazolium salt is reduced to a coloured water-insoluble formazan salt. After it is solubilized, the formazan formed can easily and rapidly be quantified in a conventional ELISA plate reader at 570 nm (maximum absorbancy). The quantity of reduced formazan corresponds to the number of vital cells in the culture.
All cells were purchased from the […] (ATCC), unless otherwise indicated: the CEM line are highly chemosensitive T-lymphoblastic leukemia cells, K562 cells were derived from patient with […] with bcr-abl translocation, A549 line is lung adenocarcinoma, HCT116 is colorectal tumor cell line and its p53 gene knock-down counterpart (HCT116p53−) is a model of human cancers with p53 mutation frequently associated with poor prognosis. The daunorubicin resistant subline of CEM cells (CEM-DNR bulk) and paclitaxel resistant subline K562-tax were selected in our laboratory by the cultivation of maternal cell lines in increasing concentrations of daunorubicine or paclitaxel, respectively (Noskova et al., Neoplasma 49, 2002, 418). The CEM-DNR bulk cells overexpress MRP-1 protein, while K562-tax cells overexpress P-glycoprotein, both proteins belong to family of ABC transporters and are involved in primary and/or acquired multidrug resistance phenomenon (Noskova et al., Neoplasma 49, 2002, 418). The cells were maintained in Nunc/Corning 80 cm^2 plastic tissue culture flasks and cultured in cell culture medium (DMEM/RPMI 1640 with 5 g/l glucose, 2 mM glutamine, 100 U/ml penicillin, 100 μg/ml streptomycin, 10% fetal calf serum, and NaHCO3).
(§2) This assay was performed according to Hajduch et al., Anti-Cancer Drugs 10, 1997, 1007. Cell suspensions were prepared and diluted according to the particular cell type and the expected target cell density (2 500-30 000 cells/well based on cell growth characteristics). Cells were added by pipette (80 μl) into 96-well microtiter plates. Inoculates were allowed a pre-incubation period of 24 h at 37° C. and 5% CO2 for stabilization. Four-fold dilutions, in 20-μl aliquots, of the intended test concentration were added to the microtiter plate wells at time zero. All test compound concentrations were examined in duplicate. Incubation of the cells with the test compounds lasted for 72 h at 37° C., in a 5% CO2 atmosphere at 100% humidity. At the end of the incubation period, the cells were assayed using MTT. Aliquots (10 μl) of the MTT stock solution were pipetted into each well and incubated for a further 1-4 h. After this incubation period the formazan produced was dissolved by the addition of 100 μl/well of 10% aq SDS (pH=5.5), followed by a further incubation at 37° C. overnight. The optical density (OD) was measured at 540 nm with a Labsystem iEMS Reader MF. Tumor cell survival (TCS) was calculated using the following equation: TCS=(ODdrug-exposed well/mean ODcontrol wells)×100%. The TCS50 value, the drug concentration lethal to 50% of the tumor cells, was calculated from appropriate dose-response curves.

[3] = system: BJ; assay: MTT cytotoxicity assay, BJ; type: cell-based; conditions: 72 h
Text: as §1, §2

| IC50 [1] [µM] | Substance | IC50 [2] [µM] | IC50 [3] [µM] |
| --- | --- | --- | --- |
| 8.9 | 1-methylenesulfamide-1,7-dicarba-closo-dodecaborane [CB-19] | ≥ 100 | ≥ 100 |
| 12 | 8-diethyleneoxysulfamide-3,3′-commo-bis(decahydro-1,2-dicarba-3-cobalta(III)-closo-dodekabor)ate (1-) [CB-17] | ≥ 100 | ≥ 100 |
| 14 | 8-ethylaminomethylsulfamide-8″-methoxy-3,3′-commo-bis(decahydro-1,2-dicarba-3-cobalta(III)-closo-dodecabor)ate (1-) [CB-15] | 33.7 ± 7.7 | 65.2 ± 4.4 |
| 4 | 8-propylenesulfamide-7-phenyl-(7,8-nido-dicarbaundecabor)ate (1-) [CB-13] | 86.5 ± 4.6 | 88.4 ± 6.1 |
| 14.9 | 9-sulfamide-9′-amine-2,2′-commo-bis(1,7,9-trikarba-2-ferra(II)-kloso-dodekabor)ane [CB-12] | ≥ 100 | ≥ 100 |
| 67.9 | 10-sulfamide-9′-amine-2,2′-commo-(1,7,10-tricarba-1′,7′,9′-tricarba-2-ferra (II)-closo-dodekabor)ane [CB-10] | ≥ 100 | ≥ 100 |
| 1.6 | Di(methylenesulfamide)-1,7-dicarba-closo-dodecaborane [CB-20] | ≥ 100 | ≥ 100 |

Continued, substance first:

| Substance | IC50 [1] [µM] | IC50 [2] [µM] | IC50 [3] [µM] |
| --- | --- | --- | --- |
| 1-methylenesulfamide-3,3′-commo-bis(1,2-dicarba-3-cobalta(III)-closo-dodecabor)ate (1-) [CB-5] | 3.7 | ≥ 100 | ≥ 100 |
| 1-methylenesulfamide-9-phenyl-1,2-dicarba-closo-dodecaborane and 1-methylene-sulfamide-12-phenyl-1,2-dicarba-closo-dodecaborane [CB-8] | 2.44 | 96 ± 6.2 | ≥ 100 |
| 1-methylensulfamide-1,2-dicarba-closo-dodekaborane [CB-1] | 2.4 | 94.9 ± 4.3 | ≥ 100 |
| 1-sulfamide-closo-1-carbadodecaborate (1-) [CB-3] |  | ≥ 100 | ≥ 100 |
| 7-methylensulfamide-8-phenyl-(7,8-nido-dikarbaundekabor)ate (1-) [CB-6] | 39.1 | 77.8 ± 10.8 | ≥ 100 |
| 7-methylensulfamide-(7,8-nido-dicarbaundekaborate) (1-) [CB-2] | 4.6 | ≥ 100 | ≥ 100 |
| 8-butyloxysulfamide-3,3′-commo-bis(decahydro-1,2-dicarba-3-cobalta(III)-closo-dodekabor)ate (1-) [CB-16] | 0.68 | ≥ 100 | ≥ 100 |
| 8-methylensulfamide-8″-methoxy-3,3′-commo-bis(1,2-dicarba-3-cobalta(III)-closo-dodecabor)ate (1-) [CB-4] | 5 | 95.5 ± 3.7 | 76.4 ± 3.3 |
